Laboratory results published in patent US11421145B2, “Oil recovery methods using a formulation containing an unsaturated zwitterionic surfactant and a polymer” (King Fahd University of Petroleum and Minerals, priority 2019, dated 2022).

How the values were obtained:
Type in all cases: physicochemical
[1] = Short-term thermal stability by thermogravimetric analysis (TGA)
Experimental: The short-term thermal stability of the unsaturated surfactant was assessed using thermogravimetric analysis (TGA). The thermal stability for a longer period (2 weeks) was determined by FTIR and NMR. The synthesized unsaturated surfactant was dried and heated at 10° C./min in an SDT-Q600 instrument (TA Instruments) from room temperature to 600° C. under nitrogen atmosphere. The thermal stability for a longer period was determined by aging 1 wt % aqueous solution of the unsaturated surfactant at 90° C. for 15 days. FTIR, ^13C NMR, and ^1H NMR were used to identify the structural changes in the unsaturated surfactant after aging. A Nicolet 6700 spectrometer was used for FTIR analysis of the unsaturated surfactant, while a JEOL 500 MHz spectrometer was used for obtaining the NMR spectra.
Solubility and compatibility of the surfactant in the reservoir and injection brine are the primary considerations for further evaluation of the unsaturated surfactant for EOR application. If the surfactant is not soluble in the seawater and formation brine, it can be rejected at the initial stage. […] After the compatibility test with SW and FW, the short-term thermal stability of the synthesized unsaturated surfactant was evaluated using TGA analysis. […] Only 3% weight loss was observed up to 200° C., which was mainly associated with solvent and water evaporation. […]

[2] = Interfacial tension between crude oil and water, spinning drop tensiometer; settings: for IFT after aging: after aging at 90° C. for 2 weeks
Text: API gravity and molecular weight of the oil were 30 and 251 g mol^−1, respectively.
where γ0 is the surface tension of the brine (FW or SW), NA is the Avogadro number, dγ/dlnC is the slope below CMC in the surface tension plot, C is the surfactant concentration in brine, T is temperature, R is the gas constant, and n=1 for zwitterionic surfactants [Wang, Y., Zhang, Y., Liu, X., Wang, J., Wei, L., & Feng, Y. (2014) Effect of a hydrophilic head group on Krafft temperature, surface activities and rheological behaviors of Erucyl Amidobetaines. Journal of Surfactants and Detergents, 17:295-301—incorporated herein by reference]. The interfacial tension between crude oil and water was measured using a spinning drop tensiometer from Kruss (SITE 100). All the reported points are the average equilibrium values.
Interfacial tension is one of the main parameters to assess the performance of surfactants for EOR application. Interfacial tension depends on several parameters such as the nature of the crude oil, salinity, temperature, pH, surfactant type and its molecular structure, surfactant concentration, and residence time of the surfactant inside the reservoir. […] The spinning drop tensiometer can measure ultra-low IFT down to 10^−4 mN m^−1 at various temperatures. This equipment could go up to 90° C., but it was difficult to get a stable drop due to bubble formation, therefore the IFT calculated at 90° C. might not be an accurate representation. Therefore, measuring IFT at high temperature was avoided and another strategy was adopted. Specifically, several solutions at field conditions (90° C.) were aged for 2 weeks and then their IFT was compared with that of the original solution. The water/oil IFT was initially >9 mN m^1 in both FW and SW. […] The low CMC is advantageous because the same IFT reduction can be achieved at a very low surfactant concentration. In addition, IFT will not change considerably because of surfactant adsorption. In general, no considerable change in IFT was detected within the investigated temperatures and salinities. […] Canadian Journal of Chemical Engineering, 94:454-460; and Li, P., Yang, C., Cui, Z., Song, B., Jiang, J., & Wang, Z. (2016) A new type of sulfobetaine surfactant with double alkyl polyoxyethylene ether chains for enhanced oil recovery. Journal of Surfactants and Detergents, 19:967-977, each incorporated herein by reference in their entirety]. […] Journal of Surfactants and Detergents, 20:777-788; and Hussain, S. S., Kamal, M. S., & Sultan, A. S. (2017) Amido-amine-based cationic Gemini surfactants: Thermal and interfacial properties and interactions with cationic polyacrylamide. Journal of Surfactants and Detergents, 20:47-55, each incorporated herein by reference in their entirety].

[3] = Compatibility of surfactant with AM-AMPS copolymer; settings: commercially available AM-AMPS copolymer
Experimental: The interactions of the synthesized unsaturated surfactant with a commercially available copolymer of acrylamide and 2-acrylamido-2-methylpropane sulfonic acid (AM-AMPS) were evaluated using compatibility and rheological tests.

[4] = 0.02 wt. % surfactant, FW, 60° C.
[5] = 0.02 wt. % surfactant, SW, 30° C.
[6] = 0.05 wt. % surfactant, FW, 60° C.
[7] = 0.05 wt. % surfactant, SW, 30° C.

- short-range thermal stability (TGA) [1]: excellent short-range thermal stability
- weight loss (TGA) ([1]; up to 200° C., heating rate 10° C. min^−1, nitrogen): 3%
- IFT ([2]; 0.01 wt. % surfactant, FW, 60° C.): 0.33 mN m^−1
- IFT ([2]; 0.01 wt. % surfactant, SW, 30° C.): 0.31 mN m^−1
- IFT ([2]; 0.01 wt. % surfactant, SW, 60° C.): 0.36 mN m^−1
- IFT [2, 4]: 0.25 mN m^−1
- IFT after aging [2, 4]: 0.27 mN m^−1
- IFT [2, 5]: 0.21 mN m^−1
- IFT after aging [2, 5]: 0.29 mN m^−1
- IFT ([2]; 0.02 wt. % surfactant, SW, 60° C.): 0.27 mN m^−1
- IFT [2, 6]: 0.23 mN m^−1
- IFT after aging [2, 6]: 0.26 mN m^−1
- IFT [2, 7]: 0.25 mN m^−1
- IFT after aging [2, 7]: 0.29 mN m^−1
- IFT ([2]; 0.05 wt. % surfactant, SW, 60° C.): 0.31 mN m^−1
- IFT ([2]; 0.075 wt. % surfactant, FW, 60° C.): 0.24 mN m^−1
- IFT ([2]; 0.075 wt. % surfactant, SW, 30° C.): 0.21 mN m^−1
- IFT ([2]; 0.075 wt. % surfactant, SW, 60° C.): 0.30 mN m^−1
- IFT ([2]; 0.1 wt. % surfactant, FW, 60° C.): 0.28 mN m^−1
- IFT ([2]; 0.1 wt. % surfactant, SW, 30° C.): 0.22 mN m^−1
- IFT ([2]; 0.1 wt. % surfactant, SW, 60° C.): 0.31 mN m^−1
- IFT ([2]; 0.2 wt. % surfactant, FW, 60° C.): 0.27 mN m^−1
- IFT ([2]; 0.2 wt. % surfactant, SW, 30° C.): 0.23 mN m^−1
- IFT ([2]; 0.2 wt. % surfactant, SW, 60° C.): 0.32 mN m^−1
- decrease in water/oil IFT on addition of surfactant ([2]; FW and SW, initial IFT >9): almost two orders of magnitude
- oil/water IFT, order of magnitude ([2]; not affected much by temperature and salinity): ~10^−1 mN m^−1
- change of water/oil IFT after aging ([2]; solutions aged at 90° C. for 2 weeks): did not change
- compatibility with acrylamide copolymer [3]: excellent compatibility
Structure (SMILES): CCCCCCCC/C=C\CCCCCCCC(=O)NCCC[N+](C)(C)CCCS(=O)(=O)[O-] [unsaturated surfactant, 3-(N-oleamidopropyl-N,N-dimethylammonium) propane sulfonate]
